Target: T1, h FPR2 (Homo sapiens, UniProt P25090)
T1 construct: expressed in transfected cells
T1 sequence (P25090 1-351): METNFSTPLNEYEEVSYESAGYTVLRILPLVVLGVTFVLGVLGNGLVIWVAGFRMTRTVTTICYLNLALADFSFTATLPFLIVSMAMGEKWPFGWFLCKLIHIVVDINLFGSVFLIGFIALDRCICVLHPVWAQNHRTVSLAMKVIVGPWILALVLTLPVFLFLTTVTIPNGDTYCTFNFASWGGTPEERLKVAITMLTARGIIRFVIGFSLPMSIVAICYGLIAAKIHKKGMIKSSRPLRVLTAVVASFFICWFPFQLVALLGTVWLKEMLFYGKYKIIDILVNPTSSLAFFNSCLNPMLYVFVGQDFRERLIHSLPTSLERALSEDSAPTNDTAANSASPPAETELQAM
Assay: Agonistic activity in hFPR2-Aq-CHO cells (FLIPR Calcium 5 fluorescence assay)
Type: cell-based
Conditions: for EC50: 11 point half log dilution, final assay concentration from 10µM
Method in brief: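 EC50 reflects the compound-evoked rise in Calcium 5 fluorescence over basal, recorded for 5 min on FLIPR and compared with no-compound wells. Dye-loaded hFPR2-Aq-CHO cells received half-log dilutions from 10 µM to 100 pM final in pH 7.4 HBSS buffer.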

For `O=C(Nc1ccccc1)N[C@@H]1CCN(CC2CNC2)C[C@H]1c1ccc(Cl)cn1` (relative stereo) [Ex-186, trans-1-(1'-azetidin-3-ylmethyl-5-chloro-1',2',3',4',5',6'-hexahydro-[2,3']bipyridinyl-4'-yl)-3-phenyl-urea], the EC50 was 27 nM.

Compound `COc1ccc([C@@H]2CN(C(=O)CN(C)C)CC[C@H]2NC(=O)Nc2ccc(Cl)cc2)nc1` (relative stereo) [Ex-190, trans-1-(4-chlorophenyl)-3-[1-[2-(dimethylamino)acetyl]-3-(5-methoxypyridin-2-yl)piperidin-4-yl]urea] has an activation at 0.1 µM (agonistic response at 0.1µM) of 8%.

Work on `COCCCN1CC[C@@H](NC(=O)Nc2ccc(Cl)cc2)[C@H](c2ncc(OC)cc2F)C1` (relative stereo) [Ex-193, trans-1-(4-chlorophenyl)-3-[3-fluoro-5-methoxy-1'-(3-methoxy-propyl)-1',2',3',4',5',6'-hexahydro-[2,3']bipyridinyl-4'-yl]-urea] yielded an EC50 of 1 nM.

`COc1ccc([C@@H]2CN(CC3(O)COC3)CC[C@H]2NC(=O)Nc2ccc(Cl)cc2)nc1` (relative stereo) [Ex-194, trans-1-(4-chloro-phenyl)-3-[1'-(3-hydroxy-oxetan-3-ylmethyl)-5-methoxy-1',2',3',4',5',6'-hexahydro-[2,3']bipyridinyl-4'-yl]-urea] showed an EC50 of 1.3 nM.

In the case of `COc1cnc([C@@H]2CN(CCS(C)(=O)=O)CC[C@H]2NC(=O)Nc2ccc(Cl)cc2)c(F)c1` (relative stereo) [Ex-196, trans-1-(4-chloro-phenyl)-3-[3-fluoro-1'-(2-methanesulfonyl-ethyl)-5-methoxy-1',2',3',4',5',6'-hexahydro-[2,3']bipyridinyl-4'-yl]-urea], the EC50 is reported as 0.7 nM.

`COc1cnc([C@@H]2CN(CCCO)CC[C@H]2NC(=O)Nc2ccc(Cl)cc2)c(F)c1` (relative stereo) [Ex-197, trans-1-(4-chloro-phenyl)-3-[3-fluoro-1'-(3-hydroxy-propyl)-5-methoxy-1',2',3',4',5',6'-hexahydro-[2,3']bipyridinyl-4'-yl]-urea] gave an EC50 of 0.9 nM.

In the case of `COCCN1CC[C@@H](NC(=O)Nc2ccc(Cl)cc2)[C@H](c2ncc(OC)cc2F)C1` (relative stereo) [Ex-198, trans-1-(4-chloro-phenyl)-3-[3-fluoro-5-methoxy-1'-(2-methoxy-ethyl)-1',2',3',4',5',6'-hexahydro-[2,3']bipyridinyl-4'-yl]-urea], the EC50 is reported as 0.4 nM.

For `COc1cnc([C@@H]2CN(CCO)CC[C@H]2NC(=O)Nc2ccc(Cl)cc2)c(F)c1` (relative stereo) [Ex-199, trans-1-(4-chloro-phenyl)-3-[3-fluoro-1'-(2-hydroxy-ethyl)-5-methoxy-1',2',3',4',5',6'-hexahydro-[2,3']bipyridinyl-4'-yl]-urea], the EC50 was 0.5 nM.

`COc1cnc([C@@H]2CN(CC3COC3)CC[C@H]2NC(=O)Nc2ccc(Cl)cc2)c(F)c1` (relative stereo) [Ex-200, trans-1-(4-chloro-phenyl)-3-(3-fluoro-5-methoxy-1'-oxetan-3-ylmethyl-1',2',3',4',5',6'-hexahydro-[2,3']bipyridinyl-4'-yl)-urea] was tested, and the EC50 was 0.4 nM.

`COc1ccc([C@@H]2CN(CC3(OC)CC3)CC[C@H]2NC(=O)Nc2ccc(Cl)cc2)nc1` (relative stereo) [Ex-201, trans-1-(4-chloro-phenyl)-3-[5-methoxy-1'-(1-methoxy-cyclopropylmethyl)-1',2',3',4',5',6'-hexahydro-[2,3']bipyridinyl-4'-yl]-urea] gave an EC50 of 0.6 nM.

With `COc1ccc([C@@H]2CN(CC3COC3)CC[C@H]2NC(=O)Nc2cc(C)ns2)nc1` (relative stereo) [Ex-204, trans-1-(5-methoxy-1'-oxetan-3-ylmethyl-1',2',3',4',5',6'-hexahydro-[2,3']bipyridinyl-4'-yl)-3-(3-methyl-isothiazol-5-yl)-urea] the EC50 was 4 nM.

`COc1ccc([C@@H]2CN(CC3CC(C)(O)C3)CC[C@H]2NC(=O)Nc2ccc(Cl)cc2)nc1` (relative stereo) [Ex-207, trans-1-(4-chloro-phenyl)-3-[1'-(3-hydroxy-3-methyl-cyclobutylmethyl)-5-methoxy-1',2',3',4',5',6'-hexahydro-[2,3']bipyridinyl-4'-yl]-urea] gave an EC50 of 9 nM.

`COc1cnc([C@@H]2CN(CC(C)(C)O)CC[C@H]2NC(=O)Nc2ccc(Cl)cc2)c(F)c1` (relative stereo) [Ex-208, trans-1-(4-chloro-phenyl)-3-[3-fluoro-1'-(2-hydroxy-2-methyl-propyl)-5-methoxy-1',2',3',4',5',6'-hexahydro-[2,3']bipyridinyl-4'-yl]-urea] gave an EC50 of 0.7 nM.

In the case of `COc1cnc([C@@H]2CN(CC3CC3)CC[C@H]2NC(=O)Nc2ccc(Cl)cc2)c(F)c1` (relative stereo) [Ex-209, trans-1-(4-chloro-phenyl)-3-(1'-cyclopropylmethyl-3-fluoro-5-methoxy-1',2',3',4',5',6'-hexahydro-[2,3']bipyridinyl-4'-yl)-urea], the EC50 is reported as 0.3 nM.

Compound `COc1ccc([C@@H]2CN(c3ccnc(C)n3)CC[C@H]2NC(=O)Nc2ccc(Cl)cc2)nc1` (relative stereo) [Ex-210, trans-1-(4-chloro-phenyl)-3-[5-methoxy-1'-(2-methyl-pyrimidin-4-yl)-1',2',3',4',5',6'-hexahydro-[2,3']bipyridinyl-4'-yl]-urea] has an EC50 of 5 nM.

For `COc1ccc([C@@H]2CN(c3ccnc(C)n3)CC[C@H]2NC(=O)Nc2cc(C)ns2)nc1` (relative stereo) [Ex-211, trans-1-[5-methoxy-1'-(2-methyl-pyrimidin-4-yl)-1',2',3',4',5',6'-hexahydro-[2,3']bipyridinyl-4'-yl]-3-(3-methyl-isothiazol-5-yl)-urea], the EC50 was 7 nM.

`COc1cnc([C@@H]2CN(CCCN(C)C)CC[C@H]2NC(=O)Nc2ccc(Cl)cc2)c(F)c1` (relative stereo) [Ex-212, trans-1-(4-chloro-phenyl)-3-[1'-(3-dimethylamino-propyl)-3-fluoro-5-methoxy-1',2',3',4',5',6'-hexahydro-[2,3']bipyridinyl-4'-yl]-urea] showed an EC50 of 0.3 nM.

In the case of `COc1cnc([C@@H]2CN(CCN(C)C)CC[C@H]2NC(=O)Nc2ccc(Cl)cc2)c(F)c1` (relative stereo) [Ex-213, trans-1-(4-chloro-phenyl)-3-[1'-(2-dimethylamino-ethyl)-3-fluoro-5-methoxy-1',2',3',4',5',6'-hexahydro-[2,3']bipyridinyl-4'-yl]-urea], the EC50 is reported as 1.05 nM.

Compound `COc1ccc([C@@H]2CN(CC3(O)COC3)CC[C@H]2NC(=O)Nc2cc(C)ns2)nc1` (relative stereo) [Ex-217, trans-1-[1'-(3-hydroxy-oxetan-3-ylmethyl)-5-methoxy-1',2',3',4',5',6'-hexahydro-[2,3']bipyridinyl-4'-yl]-3-(3-methyl-isothiazol-5-yl)-urea] has an EC50 of 6 nM.

With `COc1cnc([C@@H]2CN(C3COC3)CC[C@H]2NC(=O)Nc2ccc(Cl)cc2)c(F)c1` (relative stereo) [Ex-218, trans-1-(4-chloro-phenyl)-3-(3-fluoro-5-methoxy-1'-oxetan-3-yl-1',2',3',4',5',6'-hexahydro-[2,3']bipyridinyl-4'-yl)-urea] the EC50 was 4 nM.

`COc1ccc([C@@H]2CN(C(C)(C)CO)CC[C@H]2NC(=O)Nc2ccc(Cl)cc2)nc1` (relative stereo) [Ex-219, trans-1-(4-chloro-phenyl)-3-[1'-(2-hydroxy-1,1-dimethyl-ethyl)-5-methoxy-1',2',3',4',5',6'-hexahydro-[2,3']bipyridinyl-4'-yl]-urea] was tested, and the EC50 was 38 nM.
